# Experimental data: ChEMBL document CHEMBL1201862, “PubChem BioAssay data set” (2004)
# Active and inactive are the calls of the source.
# What was measured:
# [1] = molecular target: Voltage-dependent T-type calcium channel subunit alpha-1H (Homo sapiens, UniProt O95180); assay type: functional;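 note: channel activity triggered by adding a high calcium stimulation buffer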
# [2] = molecular target: DNA dC->dU-editing enzyme APOBEC-3A (Homo sapiens, UniProt P31941); assay: Dose Response confirmation of small molecule APOBEC3A DNA Deaminase Inhibitors via a fluorescence-based single-stranded DNA deaminase assay. [Related pubchem assays (depositor defined):AID493011, AID493024]; assay type: functional
# [3] = molecular target: DNA dC->dU-editing enzyme APOBEC-3G (Homo sapiens, UniProt Q9HC16); assay type: functional;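 note: Dose-response counterscreen measuring inhibition of APOBEC3G DNA deaminase activity, run while confirming APOBEC3A inhibitors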
# [4] = NIH-3T3 fibroblast cytotoxicity, dose response, cytotoxicity control, cell-based, fluorescence, Alamar Blue, secondary assay (AID 2327); assay type: functional;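 note: NIH-3T3 mouse fibroblasts cultured with fluconazole at 8 µg/mL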
# [5] = fluconazole-exposed Candida albicans growth modulators – fluorescence, retest, confirmation (AID 2467); assay type: functional, cell-based
# [6] = molecular target: T1, Short transient receptor potential channel 4 (Mus musculus, UniProt Q9QUQ5); assay: calcium entry via TRPC4 opening agents – cell-based, HEK293 TRPC4/mu-opioid, Fluo-4 calcium, dose response (AID 434937); assay type: functional
# T1 sequence (Q9QUQ5 whole entry): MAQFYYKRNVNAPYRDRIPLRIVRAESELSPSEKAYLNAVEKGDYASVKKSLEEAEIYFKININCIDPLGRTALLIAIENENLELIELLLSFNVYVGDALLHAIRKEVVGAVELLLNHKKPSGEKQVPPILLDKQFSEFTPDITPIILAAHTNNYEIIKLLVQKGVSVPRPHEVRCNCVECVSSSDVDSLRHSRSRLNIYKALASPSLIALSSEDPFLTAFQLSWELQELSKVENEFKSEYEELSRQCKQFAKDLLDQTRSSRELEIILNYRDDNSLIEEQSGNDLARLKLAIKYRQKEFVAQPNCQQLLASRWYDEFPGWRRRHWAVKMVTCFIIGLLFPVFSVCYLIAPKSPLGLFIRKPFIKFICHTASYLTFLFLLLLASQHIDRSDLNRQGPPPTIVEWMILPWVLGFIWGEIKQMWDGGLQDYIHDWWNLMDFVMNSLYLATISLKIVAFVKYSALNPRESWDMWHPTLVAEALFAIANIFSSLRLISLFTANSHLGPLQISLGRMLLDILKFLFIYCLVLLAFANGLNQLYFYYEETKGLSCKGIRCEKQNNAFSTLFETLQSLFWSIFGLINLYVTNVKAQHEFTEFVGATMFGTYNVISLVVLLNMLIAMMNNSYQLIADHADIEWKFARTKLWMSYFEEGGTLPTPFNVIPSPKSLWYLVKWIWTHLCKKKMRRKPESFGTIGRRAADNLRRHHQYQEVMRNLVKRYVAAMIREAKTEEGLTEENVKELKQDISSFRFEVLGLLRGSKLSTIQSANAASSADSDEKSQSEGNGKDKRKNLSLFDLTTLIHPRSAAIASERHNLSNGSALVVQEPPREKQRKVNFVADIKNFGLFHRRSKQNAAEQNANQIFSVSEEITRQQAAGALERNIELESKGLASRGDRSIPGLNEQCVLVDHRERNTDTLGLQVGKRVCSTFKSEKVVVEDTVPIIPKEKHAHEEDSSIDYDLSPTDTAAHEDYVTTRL
# [7] = molecular target: T2, Acyl-homoserine lactone acylase PvdQ (Pseudomonas aeruginosa (strain LESB58), UniProt Q9I194); assay: PvdQ acylase enzyme activity blockers – biochemical, fluorescence, plate reader and imaging, cherry-picks, dose response (AID 493231)
# T2 sequence (Q9I194 whole entry): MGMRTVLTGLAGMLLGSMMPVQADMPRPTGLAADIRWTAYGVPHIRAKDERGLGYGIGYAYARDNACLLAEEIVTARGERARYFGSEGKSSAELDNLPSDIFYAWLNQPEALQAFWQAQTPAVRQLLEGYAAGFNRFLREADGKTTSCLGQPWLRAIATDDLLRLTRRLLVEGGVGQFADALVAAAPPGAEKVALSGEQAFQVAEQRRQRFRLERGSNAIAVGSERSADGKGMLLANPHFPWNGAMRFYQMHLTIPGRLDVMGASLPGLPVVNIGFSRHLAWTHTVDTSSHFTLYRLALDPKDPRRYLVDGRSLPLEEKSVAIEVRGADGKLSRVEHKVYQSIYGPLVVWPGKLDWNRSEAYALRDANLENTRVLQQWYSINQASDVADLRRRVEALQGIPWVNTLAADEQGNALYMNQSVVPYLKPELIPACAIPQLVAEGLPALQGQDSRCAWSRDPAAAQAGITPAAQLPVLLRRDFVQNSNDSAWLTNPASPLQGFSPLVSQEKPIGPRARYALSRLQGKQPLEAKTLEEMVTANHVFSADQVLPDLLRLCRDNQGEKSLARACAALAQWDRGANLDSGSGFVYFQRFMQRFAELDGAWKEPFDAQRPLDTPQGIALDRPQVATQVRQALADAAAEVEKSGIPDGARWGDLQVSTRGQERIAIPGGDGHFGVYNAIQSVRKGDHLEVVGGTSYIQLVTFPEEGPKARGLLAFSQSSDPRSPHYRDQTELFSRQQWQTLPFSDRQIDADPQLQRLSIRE
# HEK293 = assay: EBV LMP1 TES2 canonical NF-kB signalling blockers – cell-based, HEK293, luciferase, cherry-pick, dose response (AID 588343); assay type: functional; conditions: Homo sapiens
# [8] = Luminescence Cell-Based Dose Response HTS to Identify Inhibitors of 5'UTR Stem-Loop Driven Prion Protein mRNA Translation in H4 Neuroglioblastoma Cells. [Related pubchem assays: 1827 (Project Summary), 1813 (Primary HTS)]; assay type: functional
# [9] = luciferase reporter signal suppression in cells – H4 neuroglioma cells, luminescence, dose response (AID 1990); assay type: functional, cell-based
# [10] = alpha-synuclein stem-loop luciferase translation blockers – H4 neuroglioma cells, luminescence, confirmation (AID 1988); assay type: functional, cell-based
# [11] = HEK-293T cell viability reduction – luminescence, B-cell screen hits, cytotoxicity control for BCR NF-kB inhibitor project, dose response (AID 489021); assay type: functional, cell-based;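 note: HEK-293T cells carrying an NF-kB luciferase reporter; cells exposed to compound for about 14 hours before viability readout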
# Cytochrome P450 2C9 = Cytochrome P450 2C9 (Homo sapiens, UniProt P11712)
# Leucine aminopeptidase = molecular target: T3, Leucine aminopeptidase (Plasmodium falciparum 3D7, UniProt Q8IL11); assay: P. falciparum M17LAP inhibitors, primary screen, biochemical, fluorogenic H-Leu-NHMec substrate, 1536-well (AID 1619); assay type: functional
# T3 sequence (Q8IL11 whole entry): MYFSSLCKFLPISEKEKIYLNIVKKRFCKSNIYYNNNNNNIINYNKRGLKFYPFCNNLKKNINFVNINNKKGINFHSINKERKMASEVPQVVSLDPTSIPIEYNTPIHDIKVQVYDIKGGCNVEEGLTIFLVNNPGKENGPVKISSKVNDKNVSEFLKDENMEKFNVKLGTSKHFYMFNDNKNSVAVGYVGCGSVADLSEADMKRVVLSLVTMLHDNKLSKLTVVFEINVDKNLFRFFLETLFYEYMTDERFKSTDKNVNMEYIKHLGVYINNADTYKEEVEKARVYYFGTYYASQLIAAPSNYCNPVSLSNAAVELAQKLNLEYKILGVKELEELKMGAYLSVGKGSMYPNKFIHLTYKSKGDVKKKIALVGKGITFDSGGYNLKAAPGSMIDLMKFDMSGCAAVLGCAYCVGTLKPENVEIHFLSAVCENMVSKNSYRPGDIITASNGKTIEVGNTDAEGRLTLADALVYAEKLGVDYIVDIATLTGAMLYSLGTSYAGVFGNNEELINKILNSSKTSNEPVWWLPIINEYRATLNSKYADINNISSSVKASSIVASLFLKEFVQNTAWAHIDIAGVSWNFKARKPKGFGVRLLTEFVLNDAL
# Cytochrome P450 3A4 = Cytochrome P450 3A4 (Homo sapiens, UniProt P08684); conditions: Potency;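 note: confirmatory qHTS run detecting inhibitors and substrates of CYP3A4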
# Cytochrome P450 2C19 = Cytochrome P450 2C19 (Homo sapiens, UniProt P33261); assay: Cytochrome panel assay with activity outcomes. Panel member name: p450-cyp2c19 Compounds with AC50 equal or less than 10 uM are considered active; assay type: functional; conditions: read-out: AC50
# [12] = DRD fibroblast viability loss – cell-based, non-viral oncogenic, luminescence, dose response (AID 1934); assay type: functional; conditions: Homo sapiens
# BJ [13] = assay: BJ-TERT fibroblast viability loss – cell-based, RAS-independent, luminescence, dose response (AID 1933); assay type: functional, Homo sapiens; conditions: Homo sapiens, BJ
# BJ [14] = assay: BJ-TERT-LT-ST fibroblast viability loss – cell-based, RAS-independent, luminescence, dose response (AID 1935); assay type: functional, Homo sapiens; conditions: Homo sapiens, BJ;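 note: BJ fibroblasts immortalized with TERT plus LT and ST oncogenes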
# BJ [15] = assay: cells; assay type: functional, cell-based, Homo sapiens; conditions: Homo sapiens, BJ
# cells [16] = assay type: functional, cell-based
# INS1 = assay: INS-1E survival protection against cytokine death – cell-based, luminescence, retest, dose response (AID 449756); assay type: functional; conditions: Rattus norvegicus;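 note: cell death triggered by IL-1 beta plus TNF-alpha plus IFN-gamma mixture; protective hits raise ATP signal compared with cytokine alone wells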
# cells [17] = assay type: functional, cell-based; remark: listed apart in the source
# [18] = Luminescence Cell-Based Dose Retest to Confirm Inhibitors of Cancer Stem Cells. [Related pubchem assays (depositor defined):AID2717, AID2721]; assay type: functional; conditions: Homo sapiens
# Streptococcus = assay: GAS UMAA2166 growth inhibition – luminescence, BacTiterGlo, counter-screen for streptokinase expression inhibitor project, dose response (AID 1915); assay type: functional, organism-based;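 note: potency for reduction of bacterial viability or growth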
# Streptokinase A = molecular target: T4, Streptokinase A (Streptococcus pyogenes serotype M1, UniProt P10520); assay: viability-normalized secreted streptokinase activity reduction – plasminogen activation absorbance, OD405, dose response (AID 1914); assay type: functional, Streptococcus pyogenes M1 GAS;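 note: secreted streptokinase activity via plasminogen activation per viability signal from cell pellet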
# T4 sequence (P10520 whole entry): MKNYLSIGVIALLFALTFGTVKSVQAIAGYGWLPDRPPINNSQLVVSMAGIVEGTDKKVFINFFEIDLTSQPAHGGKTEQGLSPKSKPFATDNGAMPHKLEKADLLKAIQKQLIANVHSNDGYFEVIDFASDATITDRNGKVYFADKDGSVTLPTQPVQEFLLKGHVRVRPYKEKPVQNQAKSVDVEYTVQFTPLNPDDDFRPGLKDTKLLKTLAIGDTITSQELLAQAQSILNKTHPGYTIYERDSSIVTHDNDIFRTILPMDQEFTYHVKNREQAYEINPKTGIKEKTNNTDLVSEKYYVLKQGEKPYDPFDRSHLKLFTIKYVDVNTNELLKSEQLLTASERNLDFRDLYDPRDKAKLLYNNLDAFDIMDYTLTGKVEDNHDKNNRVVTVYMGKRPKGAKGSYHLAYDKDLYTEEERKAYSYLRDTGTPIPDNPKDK
# [19] = tested on: Streptococcus sp. 'group A'; assay: Streptococcus pyogenes SK(-)GAS viability under kanamycin – luminescence, BacTiterGlo, confirmation, counter-screen for streptokinase expression inhibitor project, dose response (AID 1900); assay type: functional, organism-based
# Chain of DNA dC->dU-editing enzyme APOBEC-3A (P31941 whole entry): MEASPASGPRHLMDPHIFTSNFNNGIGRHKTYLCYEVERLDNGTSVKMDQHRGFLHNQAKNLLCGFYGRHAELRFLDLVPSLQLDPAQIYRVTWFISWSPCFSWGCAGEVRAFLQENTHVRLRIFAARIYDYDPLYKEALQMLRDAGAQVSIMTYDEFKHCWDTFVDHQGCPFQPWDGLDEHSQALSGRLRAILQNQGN
# Chain of Voltage-dependent T-type calcium channel subunit alpha-1H (O95180 whole entry): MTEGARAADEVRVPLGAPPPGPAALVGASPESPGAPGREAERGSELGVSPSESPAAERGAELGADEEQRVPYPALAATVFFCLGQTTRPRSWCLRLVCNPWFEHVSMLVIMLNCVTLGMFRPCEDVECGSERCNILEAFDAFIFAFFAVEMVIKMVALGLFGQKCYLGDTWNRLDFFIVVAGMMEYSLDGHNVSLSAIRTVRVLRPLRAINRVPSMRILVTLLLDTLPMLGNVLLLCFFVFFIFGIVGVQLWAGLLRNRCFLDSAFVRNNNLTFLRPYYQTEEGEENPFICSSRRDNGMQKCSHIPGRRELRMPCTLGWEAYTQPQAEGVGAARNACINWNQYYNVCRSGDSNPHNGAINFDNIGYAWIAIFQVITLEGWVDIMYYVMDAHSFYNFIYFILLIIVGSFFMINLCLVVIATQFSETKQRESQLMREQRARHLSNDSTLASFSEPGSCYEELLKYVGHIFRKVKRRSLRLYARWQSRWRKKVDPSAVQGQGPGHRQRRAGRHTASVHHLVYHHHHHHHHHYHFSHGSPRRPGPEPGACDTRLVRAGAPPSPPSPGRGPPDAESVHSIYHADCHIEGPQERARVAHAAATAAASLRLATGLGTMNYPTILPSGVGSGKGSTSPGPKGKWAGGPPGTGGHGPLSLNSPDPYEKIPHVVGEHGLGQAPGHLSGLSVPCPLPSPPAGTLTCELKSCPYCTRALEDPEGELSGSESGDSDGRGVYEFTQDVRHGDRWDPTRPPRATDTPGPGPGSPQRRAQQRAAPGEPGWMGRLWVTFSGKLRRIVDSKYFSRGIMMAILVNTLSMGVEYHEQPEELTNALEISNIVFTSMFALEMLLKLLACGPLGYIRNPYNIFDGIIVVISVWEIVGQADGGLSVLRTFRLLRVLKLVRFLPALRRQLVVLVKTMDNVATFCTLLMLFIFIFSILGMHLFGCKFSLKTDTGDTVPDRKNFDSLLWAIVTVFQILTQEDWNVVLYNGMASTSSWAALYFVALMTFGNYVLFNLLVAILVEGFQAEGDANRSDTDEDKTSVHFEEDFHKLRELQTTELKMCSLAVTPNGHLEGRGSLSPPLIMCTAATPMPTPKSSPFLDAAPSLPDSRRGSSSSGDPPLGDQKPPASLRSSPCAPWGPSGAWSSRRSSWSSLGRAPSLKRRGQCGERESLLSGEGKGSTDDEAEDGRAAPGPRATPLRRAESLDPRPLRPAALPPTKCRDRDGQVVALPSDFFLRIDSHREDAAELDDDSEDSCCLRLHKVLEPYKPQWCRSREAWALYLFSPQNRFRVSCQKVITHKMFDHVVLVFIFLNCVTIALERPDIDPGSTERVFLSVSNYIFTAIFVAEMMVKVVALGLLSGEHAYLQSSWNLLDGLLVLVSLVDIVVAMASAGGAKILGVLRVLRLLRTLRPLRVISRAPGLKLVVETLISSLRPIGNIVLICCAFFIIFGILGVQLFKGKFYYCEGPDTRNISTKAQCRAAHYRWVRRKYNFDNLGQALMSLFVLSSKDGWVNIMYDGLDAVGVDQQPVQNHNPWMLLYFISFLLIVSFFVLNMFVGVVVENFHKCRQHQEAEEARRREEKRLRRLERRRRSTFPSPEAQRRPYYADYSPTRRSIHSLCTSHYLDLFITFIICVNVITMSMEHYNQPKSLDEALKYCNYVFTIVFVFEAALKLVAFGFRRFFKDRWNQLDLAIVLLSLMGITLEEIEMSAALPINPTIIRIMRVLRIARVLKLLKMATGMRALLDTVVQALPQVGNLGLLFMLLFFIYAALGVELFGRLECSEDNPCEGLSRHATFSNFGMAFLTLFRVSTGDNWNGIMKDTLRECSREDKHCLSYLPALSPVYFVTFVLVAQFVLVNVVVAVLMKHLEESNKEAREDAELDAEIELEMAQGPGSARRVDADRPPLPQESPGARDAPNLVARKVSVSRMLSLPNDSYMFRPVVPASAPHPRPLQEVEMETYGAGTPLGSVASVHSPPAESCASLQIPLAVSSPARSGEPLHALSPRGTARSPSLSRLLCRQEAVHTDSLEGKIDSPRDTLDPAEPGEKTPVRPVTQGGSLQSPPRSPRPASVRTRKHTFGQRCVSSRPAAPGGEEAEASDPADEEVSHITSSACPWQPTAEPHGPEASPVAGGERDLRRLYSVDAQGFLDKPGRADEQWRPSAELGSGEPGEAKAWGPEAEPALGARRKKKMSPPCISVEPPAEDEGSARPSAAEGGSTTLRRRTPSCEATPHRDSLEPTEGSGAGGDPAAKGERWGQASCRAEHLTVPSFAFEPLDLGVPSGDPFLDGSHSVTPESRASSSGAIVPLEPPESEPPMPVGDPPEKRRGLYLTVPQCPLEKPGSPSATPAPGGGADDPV
# Chain of Cytochrome P450 2C9 (P11712 whole entry): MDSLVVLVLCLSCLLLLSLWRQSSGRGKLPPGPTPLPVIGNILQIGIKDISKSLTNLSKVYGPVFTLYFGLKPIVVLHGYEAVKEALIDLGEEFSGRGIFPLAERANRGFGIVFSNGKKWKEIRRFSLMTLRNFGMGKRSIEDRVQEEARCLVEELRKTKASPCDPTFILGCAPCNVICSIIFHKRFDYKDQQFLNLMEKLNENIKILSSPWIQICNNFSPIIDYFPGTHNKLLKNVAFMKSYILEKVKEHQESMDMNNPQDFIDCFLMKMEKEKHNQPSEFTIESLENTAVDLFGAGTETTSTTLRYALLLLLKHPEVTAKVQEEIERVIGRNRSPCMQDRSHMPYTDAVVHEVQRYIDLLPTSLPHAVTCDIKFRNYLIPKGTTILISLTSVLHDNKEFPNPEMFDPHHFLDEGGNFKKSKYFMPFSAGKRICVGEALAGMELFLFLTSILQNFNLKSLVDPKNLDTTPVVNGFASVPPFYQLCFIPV
# Chain of DNA dC->dU-editing enzyme APOBEC-3G (Q9HC16 whole entry): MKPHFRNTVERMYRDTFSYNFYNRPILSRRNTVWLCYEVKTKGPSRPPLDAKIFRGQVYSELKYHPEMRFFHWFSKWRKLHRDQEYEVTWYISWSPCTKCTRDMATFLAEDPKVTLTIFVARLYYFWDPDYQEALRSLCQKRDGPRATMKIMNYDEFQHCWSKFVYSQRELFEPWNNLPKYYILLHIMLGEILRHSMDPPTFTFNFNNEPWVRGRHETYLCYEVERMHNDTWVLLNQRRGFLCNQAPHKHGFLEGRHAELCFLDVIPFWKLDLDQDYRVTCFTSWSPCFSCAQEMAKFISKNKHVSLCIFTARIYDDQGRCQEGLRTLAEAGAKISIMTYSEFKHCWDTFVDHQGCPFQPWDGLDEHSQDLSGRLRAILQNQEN
# Chain of Cytochrome P450 3A4 (P08684 whole entry): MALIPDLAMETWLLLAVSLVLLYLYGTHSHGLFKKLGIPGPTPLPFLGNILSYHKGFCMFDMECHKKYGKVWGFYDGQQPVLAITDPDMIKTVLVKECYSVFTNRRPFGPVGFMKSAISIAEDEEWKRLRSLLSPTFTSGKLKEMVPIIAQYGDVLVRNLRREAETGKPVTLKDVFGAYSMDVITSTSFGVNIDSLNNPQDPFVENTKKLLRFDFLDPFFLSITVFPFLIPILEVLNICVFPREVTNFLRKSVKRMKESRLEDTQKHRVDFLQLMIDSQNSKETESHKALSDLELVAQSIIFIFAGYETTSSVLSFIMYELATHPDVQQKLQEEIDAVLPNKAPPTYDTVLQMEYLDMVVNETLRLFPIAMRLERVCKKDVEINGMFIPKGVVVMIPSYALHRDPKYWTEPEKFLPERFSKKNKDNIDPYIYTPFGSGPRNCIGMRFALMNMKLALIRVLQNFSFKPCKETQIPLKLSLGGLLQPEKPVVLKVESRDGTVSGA
# Chain of Cytochrome P450 2C19 (P33261 whole entry): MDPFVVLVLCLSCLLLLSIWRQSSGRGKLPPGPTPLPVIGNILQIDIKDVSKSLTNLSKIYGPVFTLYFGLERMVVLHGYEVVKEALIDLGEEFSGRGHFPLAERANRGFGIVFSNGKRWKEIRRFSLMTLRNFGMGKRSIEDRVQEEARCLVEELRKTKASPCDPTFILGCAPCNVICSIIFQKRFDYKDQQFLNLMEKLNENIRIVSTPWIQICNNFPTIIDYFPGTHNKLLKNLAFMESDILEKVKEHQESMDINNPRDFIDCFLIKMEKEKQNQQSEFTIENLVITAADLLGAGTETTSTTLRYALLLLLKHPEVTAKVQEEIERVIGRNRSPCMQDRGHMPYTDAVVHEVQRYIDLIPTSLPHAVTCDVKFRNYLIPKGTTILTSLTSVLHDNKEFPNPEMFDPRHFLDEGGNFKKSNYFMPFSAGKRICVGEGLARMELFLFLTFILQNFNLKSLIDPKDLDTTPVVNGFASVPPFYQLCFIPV
structure (smiles),measurement,setting,value
O=C(CN1CCN(c2ccccn2)CC1)N(c1ccccc1)c1ccc2ccccc2c1,EC50,[1],6.52 µM (active)
CC1=CC(C)C(C[N+]2(C)CCCCC2)C(C)C1 (stereo not drawn),IC50,[2],6.16 µM (active)
same,IC50,[3],6.31 µM (active)
CCCCC(=O)NNC(=S)NC(=O)c1ccc(C)cc1,EC50,[4],> 150 µM (inconclusive)
same,EC50,[5],1.43 µM (active)
same,EC50,[6],2.99 µM (active)
Brc1ccc(-c2nnc(-c3ccco3)o2)cc1,AC50,[7],46.2 µM (active)
O=C(CCCN1C(=O)/C(=C/c2ccccc2Cl)SC1=S)NNC(=O)c1ccccc1Cl,AC50,HEK293,9.18 µM (active)
same,EC50,[8],10.5 µM (active)
same,EC50,[9],5.95 µM (active)
same,EC50,[10],7.8 µM (active)
same,IC50,[11],> 80 µM (inactive)
O=C1Nc2ccc(F)cc2C12SCCS2,AC50,Cytochrome P450 2C9,inconclusive
COc1ccc(NC(=O)CN2c3cccc4cccc(c34)S2(=O)=O)cc1,AC50,Cytochrome P450 2C9,inconclusive
same,IC50,Leucine aminopeptidase,3.84 µM (active)
Cc1ccccc1NC(=O)c1ccc(CN2CCc3ccccc3C2)cc1,EC50,[1],2.28 µM (active)
Cc1nn(Cc2ccccc2)c(C)c1NC(=O)c1cc(-c2ccco2)on1,EC50,[1],9.33 µM (active)
CC(C)CC1CCCCC1OC(=O)C[N+]1(C)CCCCC1 (stereo not drawn),IC50,[2],2.2 µM (active)
same,IC50,[3],2.29 µM (active)
CCN(CC)CCCCn1c(-c2ccccc2)nc2c(NC3CCCCC3)nc(C)nc21,AC50,Cytochrome P450 3A4,25.1 µM (inconclusive)
O=S1(=O)CCOC[C@H](c2ccccc2)N1Cc1cccc(Cl)c1,AC50,[7],12.7 µM (active)
O=C1C=C(c2cc(F)ccc2F)C[C@@H](c2ccc(F)cc2)C1,AC50,[7],9.05 µM (active)
COc1ccc(NC(=O)c2cc(C(C)C)on2)cc1OC,AC50,Cytochrome P450 2C19,20 µM (inconclusive)
same,AC50,Cytochrome P450 2C9,inconclusive
Cc1ccccc1-n1c(SCc2c(C)noc2C)nnc1-c1c[nH]c2ccccc12,IC50,[11],> 80 µM (inactive)
Cc1nc(N2CCOCC2)c2nc(-c3ccccc3)n(CCN3CCCC3)c2n1,AC50,Cytochrome P450 3A4,20 µM (inconclusive)
CCn1c(N)[n+](CC(=O)Nc2ccc(SC(F)F)cc2)c2ccccc21,EC50,[6],4.22 µM (active)
CCOCCCNc1nc2c(C)cccn2c(=O)c1/C=C1\SC(=S)N(C(C)CC)C1=O (stereo not drawn),EC50,[12],38.5 µM (active)
same,EC50,BJ [13],> 150 µM (not active)
same,EC50,BJ [14],> 150 µM (inconclusive)
same,EC50,BJ [15],> 150 µM (not active)
same,IC50,[11],> 80 µM (inactive)
C[n+]1ccccc1/C=C/c1ccc2ncccc2c1,IC50,[2],0.892 µM (active)
same,IC50,[3],1.92 µM (active)
Cc1cc(-c2ccc(C)c(S(=O)(=O)NCCCN(Cc3ccccc3)C(C)C)c2)on1,EC50,[6],1.33 µM (active)
CCOC(=O)C1(CCOc2ccccc2)CCN(Cc2ccc(NC(C)=O)cc2)CC1,EC50,[6],0.211 µM (active)
Cc1ccc(/C=N/NC(=O)c2c(-c3ccccc3)noc2C)c(O)c1,EC50,cells [16],12.4 µM (active)
same,AC50,INS1,2.33 µM (active)
same,EC50,[4],> 150 µM (inactive)
same,EC50,cells [17],> 350 µM (not active)
same,EC50,[5],2.83 µM (active)
O/N=C(\c1ccc(Cl)cc1Cl)c1ncc(C(F)(F)F)cc1Cl,EC50,[1],2.11 µM (active)
same,AC50,[18],8.81 µM (active)
same,EC50,Streptococcus,> 150 µM (not active)
same,EC50,Streptokinase A,35.2 µM (active)
same,EC50,[19],10.6 µM (active)
Nc1nc[nH]n1 [AMITROLE],AC50,Cytochrome P450 3A4,15.8 µM (inconclusive)
"COc1cc(O)c2c(=O)cc(C)oc2c1CC=C(C)C [HETEROPEUCENIN, METHYL ETHER]",AC50,Cytochrome P450 3A4,39.8 µM (inconclusive)
